Measured values taken from US5736510A, “Antibiotics 10381v, w, x,y, z1, z2, pre-b and t” (priority 1996, dated 1998).
Where two headings read alike, the source gives them in different places.

Columns and labels:
Assay type in all cases: cell-based
[1] = test system: S. ruminantium; settings: for M.I.C.: Table III, mass basis, no correction for purity; for Minimal Inhibitory Concentration (bioactivity data): Table IV (separate study)
[2] = test system: S. faecalis; settings: for M.I.C.: Table III, mass basis, no correction for purity; for Minimal Inhibitory Concentration (bioactivity data): Table IV (separate study)
[3] = test system: M. elsdenii; settings: strain B159
[4] = test system: S. bovis; settings: strain JB1
[5] = test system: B. thetaiotaomicron; settings: strain UC9014
[6] = test system: B. fragilis; settings: strain UC9370
[7] = test system: E. lentum; settings: strain L-34; Table IV (separate study)
[8] = test system: L. multiparus; settings: strain 40
[9] = test system: R. flavefaciens; settings: for M.I.C.: Table III, mass basis, no correction for purity; for Minimal Inhibitory Concentration (bioactivity data): Table IV (separate study)
[10] = test system: anaerobic bacteria which normally inhabit the gut of poultry, swine or cattle; experiment: in vitro MIC assay, overall comparison of components across the test organisms; settings: conclusion from Tables III and IV
[11] = test system: E. ruminantium; settings: strain GA195; Table III; mass basis, no correction for purity
[12] = test system: F. necrophorum; settings: for M.I.C.: Table III, mass basis, no correction for purity; for Minimal Inhibitory Concentration (bioactivity data): Table IV (separate study)
[13] = test system: B. fibrisolvens; settings: for M.I.C.: Table III, mass basis, no correction for purity; for Minimal Inhibitory Concentration (bioactivity data): Table IV (separate study)
[14] = test system: P. ruminicola; settings: strain 118B
[15] = test system: R. amylophilus; settings: strain H18
[16] = test system: C. perfringens; set-up: Minimal Inhibitory Concentration (bioactivity data): unit not given here; settings: for M.I.C.: Table III, mass basis, no correction for purity; for Minimal Inhibitory Concentration (bioactivity data): Table IV (separate study)
[17] = test system: S. hyodysenteriae; set-up: unit not given here; settings: Table IV (separate study)
[18] = Table III, mass basis, no correction for purity

Structure (SMILES): C=C(NC(=O)C(=C)NC(=O)C(=C)NC(=O)c1ccc2c(n1)-c1coc(n1)C(=C)NC(=O)C(=C)NC(=O)c1nc(oc1C)/C(=C/C)NC(=O)c1csc(n1)C(OC)NC(=O)c1nc(oc1C)/C(=C/C(C)O)NC(=O)[C@H]([C@@H](C)O)NC(=O)c1csc-2n1)C(N)=O (stereo partly shown) [Antibiotic 10381b, sulfomycin I, reference compound]
- M.I.C. ([1]; strain GA31): 100.0 µg/mL
- Minimal Inhibitory Concentration (bioactivity data) ([1]; strain GA31): 0.8
- M.I.C. ([1]; strain GA192): > 100.0 µg/mL
- Minimal Inhibitory Concentration (bioactivity data) ([1]; strain GA192): 1.6
- M.I.C. ([2]; strain 71A01): 25.0 µg/mL
- Minimal Inhibitory Concentration (bioactivity data) ([2]; strain 71A01): 12.5
- M.I.C. ([2]; strain CCS1-03): 12.5 µg/mL
- Minimal Inhibitory Concentration (bioactivity data) ([2]; strain CCS1-03): 6.3
- M.I.C. ([2]; strain P1051C4): 12.5 µg/mL
- Minimal Inhibitory Concentration (bioactivity data) ([2]; strain P1051C4): 3.1
- M.I.C. [3, 18]: > 100.0 µg/mL
- Minimal Inhibitory Concentration (bioactivity data) ([3]; Table IV (separate study)): > 100
- M.I.C. [4, 18]: 3.1 µg/mL
- Minimal Inhibitory Concentration (bioactivity data) ([4]; Table IV (separate study)): 0.8
- M.I.C. [5, 18]: 12.5 µg/mL
- Minimal Inhibitory Concentration (bioactivity data) ([5]; Table IV (separate study)): 25.0
- M.I.C. [6, 18]: 25.0 µg/mL
- Minimal Inhibitory Concentration (bioactivity data) ([6]; Table IV (separate study)): 50.0
- Minimal Inhibitory Concentration (bioactivity data) [7]: < 0.2
- M.I.C. [8, 18]: 1.6 µg/mL
- Minimal Inhibitory Concentration (bioactivity data) ([8]; Table IV (separate study)): 1.6
- M.I.C. ([9]; strain C94): 0.8 µg/mL
- Minimal Inhibitory Concentration (bioactivity data) ([9]; strain C94): 0.8
- M.I.C. ([9]; strain FD1): 1.6 µg/mL
- Minimal Inhibitory Concentration (bioactivity data) ([9]; strain FD1): 1.6
- in vitro activity ranking of the individual components [10]: second most active
- M.I.C. [11]: 0.4 µg/mL
- M.I.C. ([12]; strain FN4070): 50.0 µg/mL
- Minimal Inhibitory Concentration (bioactivity data) ([12]; strain FN4070): 100
- M.I.C. ([12]; strain FN5052): 100.0 µg/mL
- Minimal Inhibitory Concentration (bioactivity data) ([12]; strain FN5052): 100
- M.I.C. ([13]; strain 49): 6.3 µg/mL
- Minimal Inhibitory Concentration (bioactivity data) ([13]; strain 49): 1.6
- M.I.C. ([13]; strain D1): 0.8 µg/mL
- Minimal Inhibitory Concentration (bioactivity data) ([13]; strain D1): 0.8
- M.I.C. [14, 18]: < 0.2 µg/mL
- Minimal Inhibitory Concentration (bioactivity data) ([14]; Table IV (separate study)): < 0.2
- M.I.C. [15, 18]: > 100.0 µg/mL
- Minimal Inhibitory Concentration (bioactivity data) ([15]; Table IV (separate study)): 1.6
- M.I.C. ([16]; strain 71A02): 1.6 µg/mL
- Minimal Inhibitory Concentration (bioactivity data) ([16]; strain 71A02): < 0.2
- M.I.C. ([16]; strain A82-1): 3.1 µg/mL
- Minimal Inhibitory Concentration (bioactivity data) ([16]; strain A82-1): 12.5
- M.I.C. ([16]; strain A83-3): 3.1 µg/mL
- Minimal Inhibitory Concentration (bioactivity data) ([16]; strain A83-3): < 0.2
- M.I.C. ([16]; strain A83-RKP): 0.8 µg/mL
- Minimal Inhibitory Concentration (bioactivity data) ([16]; strain A83-RKP): 0.8
- M.I.C. ([16]; strain CCS1-11): 6.3 µg/mL
- Minimal Inhibitory Concentration (bioactivity data) ([16]; strain CCS1-11): < 0.2
- M.I.C. ([16]; strain CCS2-09): 0.8 µg/mL
- Minimal Inhibitory Concentration (bioactivity data) ([16]; strain CCS2-09): 0.8
- M.I.C. ([16]; strain P1051C3): 50.0 µg/mL
- Minimal Inhibitory Concentration (bioactivity data) ([16]; strain P1051C3): 12.5
- M.I.C. ([16]; strain P1083C1): 0.4 µg/mL
- Minimal Inhibitory Concentration (bioactivity data) ([16]; strain P1083C1): 1.6
- M.I.C. ([16]; strain RF1B04): 0.4 µg/mL
- Minimal Inhibitory Concentration (bioactivity data) ([16]; strain RF1B04): < 0.2
- M.I.C. ([16]; strain UC9452): 3.1 µg/mL
- Minimal Inhibitory Concentration (bioactivity data) ([16]; strain UC9452): 1.6
- Minimal Inhibitory Concentration (bioactivity data) ([17]; strain 16-4): > 100
- Minimal Inhibitory Concentration (bioactivity data) ([17]; strain B204): > 100
